# Test: xn = mol fraction of the nth substance listed
# Settings: 100 kPa
SMILES,"electrical conductivity (293.15 K, x2 = 0.333) [S/m]","speed of sound (293.15 K, x2 = 0.333) [m/s]","electrical conductivity (298.15 K, x2 = 0.333) [S/m]","speed of sound (298.15 K, x2 = 0.333) [m/s]","electrical conductivity (313.15 K, x2 = 0.333) [S/m]","speed of sound (313.15 K, x2 = 0.333) [m/s]","viscosity (313.15 K, x2 = 0.333) [mPa·s]","electrical conductivity (318.15 K, x2 = 0.333) [S/m]","speed of sound (318.15 K, x2 = 0.333) [m/s]","viscosity (318.15 K, x2 = 0.333) [mPa·s]","electrical conductivity (323.15 K, x2 = 0.333) [S/m]","speed of sound (323.15 K, x2 = 0.333) [m/s]","viscosity (323.15 K, x2 = 0.333) [mPa·s]","electrical conductivity (333.15 K, x2 = 0.333) [S/m]","speed of sound (333.15 K, x2 = 0.333) [m/s]","viscosity (333.15 K, x2 = 0.333) [mPa·s]",further results
O=C(O)CCl + CCCC[N+](CCCC)(CCCC)CCCC.O=S(=O)([O-])O,0.012,1539.9,0.0189,1523.1,0.0508,1475.5,176.3,0.0669,1460.9,132.2,0.0861,1446.5,101.9,0.133,1418.6,64.29,"electrical conductivity (293.15 K, x2 = 0.5): 0.0017 S/m; speed of sound (293.15 K, x2 = 0.5): 1623.8 m/s; electrical conductivity (298.15 K, x2 = 0.5): 0.0032 S/m; speed of sound (298.15 K, x2 = 0.5): 1594.7 m/s; electrical conductivity (303.15 K, x2 = 0.5): 0.0053 S/m; speed of sound (303.15 K, x2 = 0.5): 1569.4 m/s; electrical conductivity (308.15 K, x2 = 0.5): 0.0037 S/m; speed of sound (308.15 K, x2 = 0.5): 1547 m/s; electrical conductivity (318.15 K, x2 = 0.5): 0.0143 S/m; speed of sound (318.15 K, x2 = 0.5): 1509 m/s; viscosity (318.15 K, x2 = 0.5): 769 mPa·s; electrical conductivity (323.15 K, x2 = 0.5): 0.0226 S/m; speed of sound (323.15 K, x2 = 0.5): 1492.3 m/s; viscosity (323.15 K, x2 = 0.5): 546 mPa·s; electrical conductivity (328.15 K, x2 = 0.333): 0.108 S/m; speed of sound (328.15 K, x2 = 0.333): 1432.5 m/s; viscosity (328.15 K, x2 = 0.333): 81.5 mPa·s; electrical conductivity (328.15 K, x2 = 0.5): 0.0306 S/m; speed of sound (328.15 K, x2 = 0.5): 1476.3 m/s; viscosity (328.15 K, x2 = 0.5): 396 mPa·s"
O=C(O)CCl + CCC[N+](CCC)(CCC)CCC.[Br-],0.0435,1550.2,0.0673,1535.1,0.177,1491.4,45.76,0.228,1477.4,34.88,0.284,1463.4,27.18,0.407,1436.1,17.67,"viscosity (293.15 K, x2 = 0.333): 178.6 mPa·s; viscosity (298.15 K, x2 = 0.333): 119.4 mPa·s; electrical conductivity (303.15 K, x2 = 0.333): 0.0981 S/m; speed of sound (303.15 K, x2 = 0.333): 1520.3 m/s; viscosity (303.15 K, x2 = 0.333): 84.3 mPa·s"

# From a compilation of properties of binary mixtures (doi:10.1016/j.molliq.2021.118393)
